Reference: patent US10435401B2, “Pesticidally active tetracyclic derivatives with sulphur containing substituents” (Syngenta Participations AG, priority 2014, dated 2019)

Tests used:
Assay type in all cases: in vivo
[1] = tested on: Tetranychus urticae (Two-Spotted Spider Mite); experiment: Tetranychus urticae feeding/contact activity; conditions: foliar, 192 h, application rate of 200 ppm, mite population of mixed ages (mobile stages) on sprayed bean leaf discs, 8 days after infestation
Protocol: Example B11: Tetranychus urticae (Two-Spotted Spider Mite):Feeding/Contact Activity
Bean leaf discs on agar in 24-well microtiter plates were sprayed with aqueous test solutions prepared from 10′000 ppm DMSO stock solutions. After drying the leaf discs were infested with a mite population of mixed ages. The samples were assessed for mortality on mixed population (mobile stages) 8 days after infestation.

[2] = tested on: Myzus persicae (Green Peach Aphid); experiment: Myzus persicae intrinsic activity; conditions: 120 h, test rate of 12 ppm, compound in sucrose solution under Parafilm, 5 days after infestation
From the text: Example B7: Myzus persicae (Green Peach Aphid): Intrinsic Activity
Test compounds from 10′000 ppm DMSO stock solutions were applied by pipette into 24-well microtiter plates and mixed with sucrose solution. The plates were closed with a stretched Parafilm. A plastic stencil with 24 holes was placed onto the plate and infested pea seedlings were placed directly on the Parafilm. The infested plate was closed with a gel blotting paper and another plastic stencil and then turned upside down. The samples were assessed for mortality 5 days after infestation.

[3] = tested on: Diabrotica balteata (Corn Root Worm); experiment: Diabrotica balteata feeding/contact activity; conditions: 96 h, application rate of 200 ppm, L2 larvae on sprayed maize sprouts, 4 days after infestation
Protocol: Example B2: Diabrotica balteata (Corn Root Worm): Feeding/Contact Activity
Maize sprouts, placed on an agar layer in 24-well microtiter plates were treated with aqueous test solutions prepared from 10′000 ppm DMSO stock solutions by spraying. After drying, the plates were infested with L2 larvae (6 to 10 per well). The samples were assessed for mortality and growth inhibition in comparison to untreated samples 4 days after infestation.

[4] = tested on: Plutella xylostella (Diamond Back Moth); experiment: Plutella xylostella feeding/contact activity; conditions: 120 h, application rate of 200 ppm, L2 larvae on treated artificial diet, 5 days after infestation, read-out: effect in at least one of the two categories (mortality or growth inhibition)
Protocol: Example B8: Plutella xylostella (Diamond Back Moth): Feeding/Contact Activity
24-well microtiter plates with artificial diet were treated with aqueous test solutions prepared from 10′000 ppm DMSO stock solutions by pipetting. After drying, the plates were infested with L2 larvae (10 to 15 per well). The samples were assessed for mortality and growth inhibition in comparison to untreated samples 5 days after infestation.

[5] = tested on: Aedes aegypti (Yellow Fever Mosquito); experiment: whole plant or invertebrate; conditions: 48 h, test rate of 5 ppm, L2 larvae in 96-well plates, 2 days incubation, read-out: effect in at least one of the two categories (mortality or growth inhibition)
Protocol: Example B12: Aedes aegypti (Yellow Fever Mosquito): Feeding Contact Activity
10 to 15 Aedes larvae (L2) together with a nutrition mixture were placed in 96-well microtiter plates. Test compounds were pipetted into the wells. After an incubation period of 2 days insects were assessed for mortality and growth inhibition.

[6] = tested on: Frankliniella occidentalis (Western Flower Thrips); experiment: Frankliniella occidentalis feeding/contact activity; conditions: foliar, 168 h, application rate of 200 ppm, population of mixed ages on sprayed sunflower leaf discs, 7 days after infestation
Protocol: Example B4: Frankliniella occidentalis (Western Flower Thrips): Feeding/Contact Activity
Sunflower leaf discs were placed on agar in 24-well microtiter plates and sprayed with aqueous test solutions prepared from […] stock solutions. After drying the leaf discs were infested with a Frankliniella population of mixed ages. The samples were assessed for mortality 7 days after infestation.

[7] = tested on: Myzus persicae (Green Peach Aphid); experiment: Myzus persicae systemic activity; conditions: 144 h, test rate of 24 ppm, roots of infested pea seedlings in test solution, 6 days
Protocol: Example B6: Myzus persicae (Green Peach Aphid): Systemic Activity
Roots of pea seedlings infested with an aphid population of mixed ages were placed directly in the aqueous test solutions prepared from 10′000 ppm DMSO stock solutions. The samples were assessed for mortality 6 days after placing seedlings in test solutions.

[8] = tested on: Spodoptera littoralis (Egyptian Cotton Leaf Worm); experiment: Spodoptera littoralis feeding/contact activity; conditions: foliar, 72 h, application rate of 200 ppm, L1 larvae on sprayed cotton leaf discs, 3 days after infestation, read-out: control (at least one of mortality, anti-feedant effect, growth inhibition)
Protocol: Example B9: Spodoptera littoralis (Egyptian Cotton Leaf Worm): Feeding/Contact Activity
Cotton leaf discs were placed on agar in 24-well microtiter plates and sprayed with aqueous test solutions prepared from 10′000 ppm DMSO stock solutions. After drying the leaf discs were infested with five L1 larvae. The samples were assessed for mortality, anti-feedant effect, and growth inhibition in comparison to untreated samples 3 days after infestation. Control of Spodoptera littoralis by a test sample is when at least one of mortality, anti-feedant effect, and growth inhibition is higher than the untreated sample.

[9] = tested on: Bemisia tabaci (Cotton White Fly); experiment: Bemisia tabaci feeding/contact activity; conditions: foliar, 144 h, application rate of 200 ppm, adult white flies on sprayed cotton leaf discs, 6 days after incubation
Protocol: Example B1: Bemisia tabaci (Cotton White Fly): Feeding/Contact Activity
Cotton leaf discs were placed on agar in 24-well microtiter plates and sprayed with aqueous test solutions prepared from 10′000 ppm DMSO stock solutions. After drying the leaf discs were infested with adult white flies. The samples were checked for mortality 6 days after incubation.

[10] = tested on: Spodoptera littoralis (Egyptian Cotton Leaf Worm); experiment: Spodoptera littoralis systemic activity; conditions: 144 h, test rate of 12.5 ppm, compound in agar taken up by lettuce roots, 6 days after infestation, read-out: effect in at least one of the three categories (mortality, anti-feedancy, or growth inhibition)
Protocol: Example B10: Spodoptera littoralis (Egyptian Cotton Leaf Worm): Systemic Activity
Test compounds were applied by pipette from 10′000 ppm DMSO stock solutions into 24-well plates and mixed with agar. […] […] […] Spodoptera eggs were pipetted through a plastic stencil on a humid gel blotting paper and the plate closed with it. The samples were assessed for mortality, anti-feedant effect and growth inhibition in comparison to untreated samples 6 days after infestation.

[11] = tested on: Myzus persicae (Green Peach Aphid); experiment: Myzus persicae feeding/contact activity; conditions: foliar, 144 h, application rate of 200 ppm, aphid population of mixed ages on sprayed sunflower leaf discs, 6 days after infestation
Protocol: Example B5: Myzus persicae (Green Peach Aphid): Feeding/Contact Activity
Sunflower leaf discs were placed on agar in a 24-well microtiter plate and sprayed with aqueous test solutions prepared from 10′000 ppm DMSO stock solutions. After drying, the leaf discs were infested with an aphid population of mixed ages. The samples were assessed for mortality 6 days after infestation.

[12] = tested on: Euschistus heros (Neotropical Brown Stink Bug); experiment: Euschistus heros feeding/contact activity; conditions: 120 h, application rate of 200 ppm, N-2 nymphs on sprayed soybean leaf, 5 days after infestation, read-out: effect in at least one of the two categories (mortality or growth inhibition)
Protocol: Example B3: Euschistus heros (Neotropical Brown Stink Bug): Feeding/Contact Activity
Soybean leaf on agar in 24-well microtiter plates were sprayed with aqueous test solutions prepared from 10′000 ppm DMSO stock solutions. After drying the leaf were infested with N-2 nymphs. The samples were assessed for growth inhibition in comparison to untreated samples 5 days after infestation.

CCS(=O)(=O)c1cc(C(F)(F)F)cnc1-c1nc2cc(C3CC3C#N)cnc2n1C (stereo not drawn) [Compound P4, 2-[2-[3-ethylsulfonyl-5-(trifluoromethyl)-2-pyridyl]-3-methyl-imidazo[4,5-b]pyridin-6-yl]cyclopropanecarbonitrile]
≥ 80%: mortality at 200 ppm [1]

CCS(=O)(=O)c1cc(C(F)(F)F)cnc1-c1nc2cc(C3CC3)cnc2n1C [Compound P1, 6-cyclopropyl-2-[3-ethylsulfonyl-5-(trifluoromethyl)-2-pyridyl]-3-methyl-imidazo[4,5-b]pyridine]
≥ 80%: mortality at 12 ppm [2]

CCS(=O)(=O)c1cc(C(F)(F)F)cnc1-c1nc2cc(C3(C#N)CCC3)cnc2n1C [Compound P3, 1-[2-[3-ethylsulfonyl-5-(trifluoromethyl)-2-pyridyl]-3-methyl-imidazo[4,5-b]pyridin-6-yl]cyclobutanecarbonitrile]
≥ 80%: mortality at 200 ppm [3]

CCS(=O)(=O)c1cc(C(F)(F)F)cnc1-c1nc2cc(C3(C#N)CC3)cnc2n1C [Compound P2, 1-[2-[3-ethylsulfonyl-5-(trifluoromethyl)-2-pyridyl]-3-methyl-imidazo[4,5-b]pyridin-6-yl]cyclopropanecarbonitrile]
≥ 80%: percent effect (mortality or growth inhibition) at 200 ppm [4] | percent effect (mortality or growth inhibition) at 5 ppm [5] | mortality at 200 ppm [6] | mortality at 200 ppm [3] | mortality at 24 ppm [7] | mortality at 12 ppm [2] | percent control (mortality, anti-feedant effect or growth inhibition) at 200 ppm [8] | mortality at 200 ppm [9] | percent control (mortality, anti-feedancy or growth inhibition) at 12.5 ppm [10] | mortality at 200 ppm [11]

CCS(=O)(=O)c1cc(C(F)(F)F)cnc1-c1nc2cc(C3CC3(C)C#N)cnc2n1C (stereo not drawn) [Compound P5, 2-[2-[3-ethylsulfonyl-5-(trifluoromethyl)-2-pyridyl]-3-methyl-imidazo[4,5-b]pyridin-6-yl]-1-methyl-cyclopropanecarbonitrile]
≥ 80%: percent control (mortality, anti-feedant effect or growth inhibition) at 200 ppm [8]

CCS(=O)(=O)c1cc(C(F)(F)F)cnc1-c1nc2cc(C3CC3)cnc2n1C [Compound P6]
≥ 80%: percent effect (mortality or growth inhibition) at 200 ppm [4] | mortality at 200 ppm [3] | percent effect (mortality or growth inhibition) at 200 ppm [12] | mortality at 24 ppm [7] | percent control (mortality, anti-feedant effect or growth inhibition) at 200 ppm [8] | percent control (mortality, anti-feedancy or growth inhibition) at 12.5 ppm [10] | mortality at 200 ppm [11]
